# Source: patent US20180140572A1, “COMPOSITIONS COMPRISING A CANCER STEMNESS INHIBITOR AND AN IMMUNOTHERAPEUTIC AGENT FOR USE IN TREATING CANCER” (Boston Biomedical, Inc., priority 2015, published 2018)
# Test system: CD8^+ T cells producing IFN-γ
# Test: Tumor antigen-specific T cell immune response (IFN-γ producing spleen CD8+ T cells)
# Assay type: in vivo, Apc^Min/+ mice
# Details: in the presence of the tumor antigen, vs control samples
# From the text: All animals were housed in Association for Assessment and Accreditation of Laboratory Animal Care-approved facilities in static microisolator cages. Testing confirmed the mice were pathogen-free and there was no evidence of murine Helicobacter spp. by culture or PCR. Apc^Min/+ mice on a C57BL/6J background were originally obtained from the Jackson Laboratory (Bar Harbor, Me.) and bred in-house to wild-type (wt) C57BL/6J mice to generate Apc^Min/+. 17 week old Apc^Min/+ mice or matched wild-type controls were treated with either vehicle alone, or BBI608 at 200 mg/kg daily by oral gavage (p.o., q.d.) for 4 consecutive days (n=4/group). Body weight and clinical signs were monitored throughout the course of the treatment. On treatment day 4, the animals were sacrificed 4 hours after the last dose and the tumors in the Apc^Min/+ small intestine or a piece of normal intestine, from wild type controls, were harvested.
# Spleen tissues were collected from the above APC^Min/+ mice at the time of tumor harvesting. CD8^+ T cells were separated using a CD8^+ T cells isolation kit according to the manufacturer's protocol (STEMCELL Technology). […] Intracellular IFN-γ was then stained with Alexa-647 labeled rat anti-mouse IFN-γ antibody (1:100, BD) and CD8^+ T cells producing IFN-γ were analyzed under the Zeiss fluorescence microscope described above.
structure (smiles),measurement,value
"CC(=O)c1cc2c(o1)C(=O)c1ccccc1C2=O [BBI608, 2-acetylnaphtho[2,3-b]furan-4,9-dione]",percentage of CD8^+ T cells producing INF-γ,higher percentage
